In patent publication US20170165317A1, “METHOD FOR MITIGATING OR ALLEVIATING SYNAPTIC AND COGNITIVE DEFICITS” (Trustees of Dartmouth College, priority 2013, published 2017):

Legend:
[1] = system: APP/PS1 mice; experiment: Novel object location task after i.c.v. infusion by osmotic minipump; type: in vivo, mouse; conditions: VO-OHpic infused 3-4 weeks into brain ventricles
Procedure: (§1) APP/PS1 and wild-type mice were anesthetized with isofluorane, and i.c.v. delivery cannulas (brain alzet kit III) were implanted with a stereotaxic frame (KOPF Instruments) at the following coordinates according to the bregma: AP, −0.5 mm; ML, 1 mm; and DV, −2.2 mm. Osmotic minipumps (Alzet) were filled with artificial cerebrospinal fluid (aCSF) with or without PTEN inhibitor VO-OHpic (2.5 μM) and equilibrated in 0.9% NaCl at 37° C. for 48 hours. They were attached to the i.c.v. cannula tubing and subcutaneously implanted at the back. After 21 days, behavioral testing was started as described herein. One month after implantation, mice were sacrificed and the brains were sliced stained with Nissl to verify the location of the cannula. Animal manipulation and data analysis was carried out blind with respect to genotype and treatment.
Novel-Object Location. This assay was chosen because it is not intrinsically stressful. This factor, in mice, crucially affects cognitive performance in other spatial learning paradigms (e.g., Morris water maze). The memory tests were composed of three phases—“habituation”, “sample” and “choice” trials. Mice were first habituated individually to an empty open-field box (35×35×15 high cm) for 30 minutes. A sample trial (object exposure) consisted of placing a mouse into the test box which contained two identical objects. […] A recognition index was calculated by dividing the total time spent exploring the displaced object by the total time spent exploring both objects during the test session. […]
(§2) It was posited that if early Aβ-induced cognitive impairment results from a general synaptic bias toward LTD events (Selkoe (2002) Science 298:789-791), dampening this form of synaptic plasticity might prevent cognitive decay. Therefore, it was determined whether in vivo inhibition of PTEN, a lipid phosphatase that is involved in LTD (Jurado, et al. (2010) EMBO J. 29:2827-2840), would rescue cognitive deficits in APP/PS1 mice. […]

[2] = system: APP/PS1 mice; experiment: Auditory-cued fear conditioning (hippocampal-independent) after i.c.v. infusion; type: in vivo, mouse; conditions: wild-type vs APP/PS1 mice, with or without VO-OHpic
Procedure: as §1, with “One month after implantation, mice were sacrificed and the brains were sliced stained with Nissl to verify the location of the cannula. Animal manipulation and data analysis was carried out blind with respect to genotype and treatment.” left out
Fear conditioning. […] The animals' behavior was scored by an observer blind to the treatment condition. Using a time-sampling procedure every 2 seconds, each mouse was scored blindly as either freezing or active at the instant the sample was taken. […]
as §2

SMILES: O=C(O)c1ncccc1O.O=C(O)c1ncccc1O.[O]=[V][O-] [VO-OHpic]
- performance in novel object location task (recognition index) ([1]; APP/PS1 mice, P=0.02 vs vehicle-infused APP/PS1, recognition index similar to wild-type): significant improvement
- performance in novel object location task (recognition index) ([1]; wild-type mice): did not affect the performance
- auditory-cued fear conditioning (percentage freezing to the tone) [2]: did not show significant difference
